Assay results published in paper PMC8800111 (The Journal of Biological Chemistry, 2021).

Assays:
Type in all cases: cell-based
[1] = molecular target: proteins of U3A human fibrosarcoma cells (4462 proteins detected) (Homo sapiens, UniProt P62701); settings: protein RPS4X; soluble abundance after heat, U3A cells
[2] = molecular target: proteins of U3A human fibrosarcoma cells (4462 proteins detected) (Homo sapiens, UniProt Q8IXJ6); settings: protein SIRT2; U3A cells
[3] = molecular target: proteins of U3A human fibrosarcoma cells (4462 proteins detected) (Homo sapiens, UniProt P35232); settings: protein PHB; U3A cells
[4] = molecular target: proteins of U3A human fibrosarcoma cells (4462 proteins detected) (Homo sapiens, UniProt P78347); settings: protein GTF2I; U3A cells
[5] = molecular target: proteins of U3A human fibrosarcoma cells (4462 proteins detected) (Homo sapiens, UniProt Q04721); settings: protein NOTCH2, U3A cells
[6] = molecular target: proteins of U3A human fibrosarcoma cells (4462 proteins detected) (Homo sapiens, UniProt Q96A26); settings: protein FAM162A; U3A, 10 μM, 2 h
[7] = molecular target: proteins of U3A human fibrosarcoma cells (4462 proteins detected) (Homo sapiens, UniProt Q9Y5J6); settings: protein TIMM10B; U3A cells
[8] = molecular target: proteins of U3A human fibrosarcoma cells (4462 proteins detected) (Homo sapiens, UniProt Q9BXY0); settings: protein MAK16; soluble abundance after heat, U3A cells
[9] = molecular target: proteins of U3A human fibrosarcoma cells (4462 proteins detected) (Homo sapiens, UniProt Q9H7Z7); settings: protein PTGES2, U3A cells
[10] = molecular target: proteins of U3A human fibrosarcoma cells (4462 proteins detected) (Homo sapiens, UniProt Q13541); settings: protein EIF4EBP1, U3A cells
[11] = molecular target: proteins of U3A human fibrosarcoma cells (4462 proteins detected) (Homo sapiens, UniProt Q4VC31); settings: protein CCDC58; U3A cells
[12] = molecular target: proteins of U3A human fibrosarcoma cells (4462 proteins detected) (Homo sapiens, UniProt Q6P1L8); settings: protein MRPL14, U3A cells
[13] = molecular target: proteins of U3A human fibrosarcoma cells (4462 proteins detected) (Homo sapiens, UniProt O43683); settings: protein BUB1; U3A cells
[14] = molecular target: proteins of U3A human fibrosarcoma cells (4462 proteins detected) (Homo sapiens, UniProt Q9NU23); settings: protein LYRM2; U3A, 10 μM, 2 h
[15] = molecular target: proteins of U3A human fibrosarcoma cells (4462 proteins detected) (Homo sapiens, UniProt O14965); settings: protein AURKA; soluble abundance after heat, U3A cells
[16] = molecular target: proteins of U3A human fibrosarcoma cells (4462 proteins detected) (Homo sapiens, UniProt O95292); settings: protein VAPB; U3A cells
[17] = molecular target: proteins of U3A human fibrosarcoma cells (4462 proteins detected) (Homo sapiens, UniProt P26006); settings: protein ITGA3; U3A cells
[18] = molecular target: proteins of U3A human fibrosarcoma cells (4462 proteins detected) (Homo sapiens, UniProt Q9NXV6); settings: protein CDKN2AIP; U3A cells
[19] = molecular target: proteins of U3A human fibrosarcoma cells (4462 proteins detected) (Homo sapiens, UniProt P20042); settings: protein EIF2S2; U3A cells
[20] = molecular target: proteins of U3A human fibrosarcoma cells (4462 proteins detected) (Homo sapiens, UniProt P63096); settings: protein GNAI1; soluble abundance after heat, U3A cells
[21] = molecular target: proteins of U3A human fibrosarcoma cells (4462 proteins detected) (Homo sapiens, UniProt Q8IW35); settings: protein CEP97; U3A, 10 μM, 2 h
[22] = molecular target: proteins of U3A human fibrosarcoma cells (4462 proteins detected) (Homo sapiens, UniProt P52823); settings: protein STC1; U3A, 10 μM, 2 h
[23] = molecular target: proteins of U3A human fibrosarcoma cells (4462 proteins detected) (Homo sapiens, UniProt P68366); settings: protein TUBA4A; U3A cells
[24] = molecular target: proteins of U3A human fibrosarcoma cells (4462 proteins detected) (Homo sapiens, UniProt Q06323); settings: protein PSME1; soluble abundance after heat, U3A cells
[25] = molecular target: proteins of U3A human fibrosarcoma cells (4462 proteins detected) (Homo sapiens, UniProt P07602); settings: protein PSAP; soluble abundance after heat, U3A cells
[26] = molecular target: proteins of U3A human fibrosarcoma cells (4462 proteins detected) (Homo sapiens, UniProt P49247); settings: protein RPIA, U3A cells
[27] = molecular target: proteins of U3A human fibrosarcoma cells (4462 proteins detected) (Homo sapiens, UniProt P78316); settings: protein NOP14; U3A cells
[28] = molecular target: proteins of U3A human fibrosarcoma cells (4462 proteins detected) (Homo sapiens, UniProt Q8NFF5); settings: protein FLAD1; U3A cells
[29] = molecular target: proteins of U3A human fibrosarcoma cells (4462 proteins detected) (Homo sapiens, UniProt Q16401); settings: protein PSMD5; soluble abundance after heat, U3A cells
[30] = molecular target: proteins of U3A human fibrosarcoma cells (4462 proteins detected) (Homo sapiens, UniProt Q13601); settings: protein KRR1; soluble abundance after heat, U3A cells

proteins of U3A human fibrosarcoma cells (4462 proteins detected) (Homo sapiens, UniProt Q9NXV6), sequence (Q9NXV6 whole entry): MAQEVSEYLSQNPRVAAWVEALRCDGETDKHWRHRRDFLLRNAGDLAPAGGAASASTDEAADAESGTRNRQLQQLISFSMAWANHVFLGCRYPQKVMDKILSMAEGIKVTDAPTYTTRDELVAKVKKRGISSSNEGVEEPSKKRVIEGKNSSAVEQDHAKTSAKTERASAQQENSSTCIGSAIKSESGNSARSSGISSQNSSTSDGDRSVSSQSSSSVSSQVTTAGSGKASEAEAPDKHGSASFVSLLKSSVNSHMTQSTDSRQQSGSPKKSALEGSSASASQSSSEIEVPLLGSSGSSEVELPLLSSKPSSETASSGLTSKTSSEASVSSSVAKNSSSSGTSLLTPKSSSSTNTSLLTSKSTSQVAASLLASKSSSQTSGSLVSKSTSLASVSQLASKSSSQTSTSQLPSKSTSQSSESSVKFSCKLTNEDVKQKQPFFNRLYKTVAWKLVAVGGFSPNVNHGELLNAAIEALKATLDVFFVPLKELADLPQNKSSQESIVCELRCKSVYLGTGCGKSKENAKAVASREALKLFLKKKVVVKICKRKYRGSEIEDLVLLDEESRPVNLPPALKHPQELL
proteins of U3A human fibrosarcoma cells (4462 proteins detected) (Homo sapiens, UniProt P78347), sequence (P78347 whole entry): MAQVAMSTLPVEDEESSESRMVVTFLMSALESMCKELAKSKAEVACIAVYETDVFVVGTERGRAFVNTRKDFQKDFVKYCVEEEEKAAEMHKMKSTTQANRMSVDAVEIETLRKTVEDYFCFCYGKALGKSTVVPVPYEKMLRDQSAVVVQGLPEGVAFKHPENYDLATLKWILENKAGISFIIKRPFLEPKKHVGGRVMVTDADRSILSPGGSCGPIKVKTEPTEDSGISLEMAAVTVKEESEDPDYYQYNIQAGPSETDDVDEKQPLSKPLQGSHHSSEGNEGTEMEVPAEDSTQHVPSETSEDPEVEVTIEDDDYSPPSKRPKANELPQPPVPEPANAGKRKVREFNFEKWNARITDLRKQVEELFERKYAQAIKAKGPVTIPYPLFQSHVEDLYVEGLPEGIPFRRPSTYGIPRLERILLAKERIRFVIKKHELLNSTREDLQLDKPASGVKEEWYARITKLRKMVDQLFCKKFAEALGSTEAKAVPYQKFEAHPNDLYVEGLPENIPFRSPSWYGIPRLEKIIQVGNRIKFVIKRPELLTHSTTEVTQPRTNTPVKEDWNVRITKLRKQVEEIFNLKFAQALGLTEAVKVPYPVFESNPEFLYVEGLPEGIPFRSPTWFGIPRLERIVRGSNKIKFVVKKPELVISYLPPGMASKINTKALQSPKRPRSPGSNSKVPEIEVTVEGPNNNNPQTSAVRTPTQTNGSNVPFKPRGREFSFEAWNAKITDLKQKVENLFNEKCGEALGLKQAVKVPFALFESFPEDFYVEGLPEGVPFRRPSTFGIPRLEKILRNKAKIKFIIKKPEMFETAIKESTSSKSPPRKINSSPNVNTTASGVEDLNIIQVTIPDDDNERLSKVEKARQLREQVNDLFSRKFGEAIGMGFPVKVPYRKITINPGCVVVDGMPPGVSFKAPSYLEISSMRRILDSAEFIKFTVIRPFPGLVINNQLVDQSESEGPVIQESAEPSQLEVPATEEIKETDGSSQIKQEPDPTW
proteins of U3A human fibrosarcoma cells (4462 proteins detected) (Homo sapiens, UniProt Q8NFF5), sequence (Q8NFF5 18-587): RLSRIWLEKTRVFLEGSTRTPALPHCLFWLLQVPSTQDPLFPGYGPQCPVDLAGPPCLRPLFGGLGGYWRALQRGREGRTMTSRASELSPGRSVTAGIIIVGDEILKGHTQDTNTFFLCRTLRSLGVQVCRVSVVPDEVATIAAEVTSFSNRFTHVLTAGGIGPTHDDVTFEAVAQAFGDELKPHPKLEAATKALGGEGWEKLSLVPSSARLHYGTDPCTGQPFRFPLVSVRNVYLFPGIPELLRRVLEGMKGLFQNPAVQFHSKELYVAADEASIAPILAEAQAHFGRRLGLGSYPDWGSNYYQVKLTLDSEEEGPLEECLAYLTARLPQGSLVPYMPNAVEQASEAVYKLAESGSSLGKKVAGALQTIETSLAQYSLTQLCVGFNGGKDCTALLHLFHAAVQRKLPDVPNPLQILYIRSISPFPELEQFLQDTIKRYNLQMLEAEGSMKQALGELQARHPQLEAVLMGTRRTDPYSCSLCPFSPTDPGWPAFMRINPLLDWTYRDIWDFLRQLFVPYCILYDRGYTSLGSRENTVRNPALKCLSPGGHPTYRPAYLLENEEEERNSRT
proteins of U3A human fibrosarcoma cells (4462 proteins detected) (Homo sapiens, UniProt Q4VC31), sequence (Q4VC31 whole entry): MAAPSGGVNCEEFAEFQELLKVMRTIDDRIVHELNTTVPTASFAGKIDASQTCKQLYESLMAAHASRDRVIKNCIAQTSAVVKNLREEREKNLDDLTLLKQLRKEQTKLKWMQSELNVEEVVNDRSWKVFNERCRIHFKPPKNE
proteins of U3A human fibrosarcoma cells (4462 proteins detected) (Homo sapiens, UniProt Q04721), sequence (Q04721 26-2471): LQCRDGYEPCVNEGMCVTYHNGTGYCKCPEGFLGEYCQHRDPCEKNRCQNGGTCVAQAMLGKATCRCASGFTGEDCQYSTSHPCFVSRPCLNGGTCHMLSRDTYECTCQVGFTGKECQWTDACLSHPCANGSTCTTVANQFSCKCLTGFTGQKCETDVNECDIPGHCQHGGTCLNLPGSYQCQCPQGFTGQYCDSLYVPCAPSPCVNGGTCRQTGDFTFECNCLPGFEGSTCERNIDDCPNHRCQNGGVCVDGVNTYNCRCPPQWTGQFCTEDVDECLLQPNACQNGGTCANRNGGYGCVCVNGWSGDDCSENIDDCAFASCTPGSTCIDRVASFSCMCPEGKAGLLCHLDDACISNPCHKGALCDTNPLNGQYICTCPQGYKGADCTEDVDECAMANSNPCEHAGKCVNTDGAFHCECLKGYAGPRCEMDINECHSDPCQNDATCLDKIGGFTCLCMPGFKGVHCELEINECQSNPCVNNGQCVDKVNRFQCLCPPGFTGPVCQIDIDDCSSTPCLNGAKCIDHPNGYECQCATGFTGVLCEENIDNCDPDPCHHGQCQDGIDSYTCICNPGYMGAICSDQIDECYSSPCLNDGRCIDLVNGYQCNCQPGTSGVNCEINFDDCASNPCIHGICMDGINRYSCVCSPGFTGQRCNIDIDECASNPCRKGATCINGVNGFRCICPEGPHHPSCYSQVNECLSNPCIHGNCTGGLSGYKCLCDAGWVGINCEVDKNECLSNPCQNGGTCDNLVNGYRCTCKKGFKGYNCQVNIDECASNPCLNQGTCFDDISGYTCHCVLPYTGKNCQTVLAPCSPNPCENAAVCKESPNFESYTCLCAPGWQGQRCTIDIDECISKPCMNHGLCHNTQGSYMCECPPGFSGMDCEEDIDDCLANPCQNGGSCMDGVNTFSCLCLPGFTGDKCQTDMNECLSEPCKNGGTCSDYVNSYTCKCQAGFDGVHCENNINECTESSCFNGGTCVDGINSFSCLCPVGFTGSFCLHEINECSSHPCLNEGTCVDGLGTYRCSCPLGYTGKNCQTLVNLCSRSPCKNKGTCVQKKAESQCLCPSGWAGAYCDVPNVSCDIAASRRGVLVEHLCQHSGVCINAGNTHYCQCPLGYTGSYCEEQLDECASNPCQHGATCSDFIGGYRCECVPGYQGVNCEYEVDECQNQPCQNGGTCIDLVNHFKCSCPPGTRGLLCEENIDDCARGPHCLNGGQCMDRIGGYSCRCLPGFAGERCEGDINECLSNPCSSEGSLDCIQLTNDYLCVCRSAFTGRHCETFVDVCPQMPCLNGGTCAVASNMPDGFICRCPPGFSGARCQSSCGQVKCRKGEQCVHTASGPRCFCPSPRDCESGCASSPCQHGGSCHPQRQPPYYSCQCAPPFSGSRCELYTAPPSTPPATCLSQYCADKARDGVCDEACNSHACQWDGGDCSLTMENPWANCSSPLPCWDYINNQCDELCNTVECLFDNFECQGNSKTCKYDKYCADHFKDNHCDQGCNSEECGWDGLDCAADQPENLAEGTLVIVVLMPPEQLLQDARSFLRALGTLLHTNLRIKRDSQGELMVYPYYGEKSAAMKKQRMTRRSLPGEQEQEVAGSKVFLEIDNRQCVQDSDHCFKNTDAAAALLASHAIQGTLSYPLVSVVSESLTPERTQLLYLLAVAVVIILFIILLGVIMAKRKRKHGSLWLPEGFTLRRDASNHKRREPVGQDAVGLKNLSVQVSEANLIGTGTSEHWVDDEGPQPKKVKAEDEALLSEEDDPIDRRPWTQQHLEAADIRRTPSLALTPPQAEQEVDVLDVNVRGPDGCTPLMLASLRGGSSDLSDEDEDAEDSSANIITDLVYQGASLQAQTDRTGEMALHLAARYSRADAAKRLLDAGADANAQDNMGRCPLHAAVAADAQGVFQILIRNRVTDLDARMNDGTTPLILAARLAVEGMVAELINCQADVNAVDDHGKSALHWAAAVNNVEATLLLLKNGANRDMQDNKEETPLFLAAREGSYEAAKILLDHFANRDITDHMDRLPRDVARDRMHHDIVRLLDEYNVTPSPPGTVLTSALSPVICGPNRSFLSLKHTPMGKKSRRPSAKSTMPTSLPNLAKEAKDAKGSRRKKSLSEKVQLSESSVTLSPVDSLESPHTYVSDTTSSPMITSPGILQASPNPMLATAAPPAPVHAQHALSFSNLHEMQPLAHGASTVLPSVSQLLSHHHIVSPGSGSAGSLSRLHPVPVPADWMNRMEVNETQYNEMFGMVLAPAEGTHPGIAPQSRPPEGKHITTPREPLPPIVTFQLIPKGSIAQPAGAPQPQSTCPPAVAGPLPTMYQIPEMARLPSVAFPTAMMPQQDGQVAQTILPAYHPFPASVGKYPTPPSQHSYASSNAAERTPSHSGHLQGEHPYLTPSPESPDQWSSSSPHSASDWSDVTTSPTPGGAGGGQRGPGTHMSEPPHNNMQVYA
proteins of U3A human fibrosarcoma cells (4462 proteins detected) (Homo sapiens, UniProt P63096), sequence (P63096 whole entry): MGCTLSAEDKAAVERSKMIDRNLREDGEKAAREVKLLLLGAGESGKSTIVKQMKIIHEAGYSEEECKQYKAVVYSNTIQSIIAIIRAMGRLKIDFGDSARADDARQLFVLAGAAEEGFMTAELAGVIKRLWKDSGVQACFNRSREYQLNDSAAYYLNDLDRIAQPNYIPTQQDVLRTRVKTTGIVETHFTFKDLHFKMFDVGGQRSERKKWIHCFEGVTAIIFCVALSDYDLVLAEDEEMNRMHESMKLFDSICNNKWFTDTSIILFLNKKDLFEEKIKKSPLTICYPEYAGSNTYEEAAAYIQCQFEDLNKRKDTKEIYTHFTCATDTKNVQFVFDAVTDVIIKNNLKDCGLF

## CCc1nc(N)nc(N)c1-c1ccc(Cl)cc1 [pyrimethamine]
[1]
  Log2 (PYR/DMSO): 0.14
[2]
  Log2 (PYR/DMSO): 0.19
[3]
  Log2 (PYR/DMSO): 0.16
[4]
  Log2 (PYR/DMSO): 0.23
[5]
  Log2 (PYR/DMSO): -0.04
[6]
  Log2 (PYR/DMSO), FAM162A: -0.37
[7]
  Log2 (PYR/DMSO): 0.18
[8]
  Log2 (PYR/DMSO): 0.14
[9]
  Log2 (PYR/DMSO): -0.04
[10]
  Log2 (PYR/DMSO): -0.04
[11]
  Log2 (PYR/DMSO): 0.20
[12]
  Log2 (PYR/DMSO): -0.04
[13]
  Log2 (PYR/DMSO): 0.16
[14]
  Log2 (PYR/DMSO), LYRM2: 0.27
[15]
  Log2 (PYR/DMSO): 0.15
[16]
  Log2 (PYR/DMSO): 0.19
[17]
  Log2 (PYR/DMSO): 0.16
[18]
  Log2 (PYR/DMSO): 0.16
[19]
  Log2 (PYR/DMSO): 0.17
[20]
  Log2 (PYR/DMSO): 0.14
[21]
  Log2 (PYR/DMSO), CEP97: -0.20
[22]
  Log2 (PYR/DMSO), STC1: 0.25
[23]
  Log2 (PYR/DMSO): 0.17
[24]
  Log2 (PYR/DMSO): 0.14
[25]
  Log2 (PYR/DMSO): 0.15
[26]
  Log2 (PYR/DMSO): -0.05
[27]
  Log2 (PYR/DMSO): 0.15
[28]
  Log2 (PYR/DMSO): 0.16
[29]
  Log2 (PYR/DMSO): 0.14
[30]
  Log2 (PYR/DMSO): 0.14
